In PubChem BioAssay (NCI):
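Step 1: Grow cells in 96-well plates. Step 2: Expose to compound for 48 hours at 5 concentrations. Step 3: Interpolate endpoints linearly; if unreached, use highest concentration. TGI denotes the concentration required for complete inhibition of growth.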

The compounds below were run on OVCAR-3 ovarian (assay: inhibition of tumour cell growth, NCI panel, 48 h).

SMILES | TGI
Cn1c(=O)c2c(no[n+]2[O-])c2ccccc21 | 48.4 µM

Each compound was assayed on SK-MEL-2 melanoma (assay: inhibition of tumour cell growth, NCI panel, 48 h).

SMILES | TGI
Cn1c(N)c2c3c(sc2nc1=O)CCCC3 | > 75 µM
NC12Oc3cc(O)cc(O)c3C1(c1ccc(Cl)cc1)c1c(O)cc(O)cc1O2 (centres undefined) | > 100 µM
CCN(CC)C(=S)SS(=O)(=O)c1ccc(F)cc1 | > 100 µM
Cn1c(=O)c2c(no[n+]2[O-])c2ccccc21 | 28.7 µM

What follows are compounds tested on RPMI-8226 leukemia (assay: inhibition of tumour cell growth, NCI panel, 48 h).

SMILES | TGI
Cn1c(N)c2c3c(sc2nc1=O)CCCC3 | > 75 µM
NC12Oc3cc(O)cc(O)c3C1(c1ccc(Cl)cc1)c1c(O)cc(O)cc1O2 (centres undefined) | > 100 µM
CCN(CC)C(=S)SS(=O)(=O)c1ccc(F)cc1 | 55.5 µM
Cn1c(=O)c2c(no[n+]2[O-])c2ccccc21 | 62 µM

These compounds were tested on NCI-H522 lung (assay: inhibition of tumour cell growth, NCI panel, 48 h).

SMILES | TGI
Cn1c(N)c2c3c(sc2nc1=O)CCCC3 | > 75 µM
NC12Oc3cc(O)cc(O)c3C1(c1ccc(Cl)cc1)c1c(O)cc(O)cc1O2 (centres undefined) | 92.9 µM
CCN(CC)C(=S)SS(=O)(=O)c1ccc(F)cc1 | 0.505 µM
Cn1c(=O)c2c(no[n+]2[O-])c2ccccc21 | 27.8 µM

These compounds were tested on PC-3 prostate (assay: inhibition of tumour cell growth, NCI panel, 48 h).

SMILES | TGI
Cn1c(N)c2c3c(sc2nc1=O)CCCC3 | > 75 µM
NC12Oc3cc(O)cc(O)c3C1(c1ccc(Cl)cc1)c1c(O)cc(O)cc1O2 (centres undefined) | > 100 µM
Cn1c(=O)c2c(no[n+]2[O-])c2ccccc21 | 71.8 µM

What follows are compounds tested on UO-31 renal (assay: inhibition of tumour cell growth, NCI panel, 48 h).

SMILES | TGI
Cn1c(N)c2c3c(sc2nc1=O)CCCC3 | > 75 µM
NC12Oc3cc(O)cc(O)c3C1(c1ccc(Cl)cc1)c1c(O)cc(O)cc1O2 (centres undefined) | > 100 µM
CCN(CC)C(=S)SS(=O)(=O)c1ccc(F)cc1 | 72.5 µM
Cn1c(=O)c2c(no[n+]2[O-])c2ccccc21 | 55 µM

These compounds were tested on CCRF-CEM leukemia (assay: inhibition of tumour cell growth, NCI panel, 48 h).

SMILES | TGI
NC12Oc3cc(O)cc(O)c3C1(c1ccc(Cl)cc1)c1c(O)cc(O)cc1O2 (centres undefined) | > 100 µM
Cn1c(=O)c2c(no[n+]2[O-])c2ccccc21 | 48.9 µM

The compounds below were run on SNB-75 CNS (assay: inhibition of tumour cell growth, NCI panel, 48 h).

SMILES | TGI
Cn1c(N)c2c3c(sc2nc1=O)CCCC3 | > 75 µM
NC12Oc3cc(O)cc(O)c3C1(c1ccc(Cl)cc1)c1c(O)cc(O)cc1O2 (centres undefined) | > 100 µM
Cn1c(=O)c2c(no[n+]2[O-])c2ccccc21 | 35.9 µM

The compounds below were run on SF-268 CNS (assay: inhibition of tumour cell growth, NCI panel, 48 h).

SMILES | TGI
Cn1c(N)c2c3c(sc2nc1=O)CCCC3 | > 75 µM
NC12Oc3cc(O)cc(O)c3C1(c1ccc(Cl)cc1)c1c(O)cc(O)cc1O2 (centres undefined) | > 100 µM
CCN(CC)C(=S)SS(=O)(=O)c1ccc(F)cc1 | > 100 µM
Cn1c(=O)c2c(no[n+]2[O-])c2ccccc21 | 59.2 µM

What follows are compounds tested on A498 renal (assay: inhibition of tumour cell growth, NCI panel, 48 h).

SMILES | TGI
Cn1c(N)c2c3c(sc2nc1=O)CCCC3 | > 75 µM
NC12Oc3cc(O)cc(O)c3C1(c1ccc(Cl)cc1)c1c(O)cc(O)cc1O2 (centres undefined) | > 100 µM
CCN(CC)C(=S)SS(=O)(=O)c1ccc(F)cc1 | > 100 µM
Cn1c(=O)c2c(no[n+]2[O-])c2ccccc21 | 70.2 µM

These compounds were tested on MOLT-4 leukemia (assay: inhibition of tumour cell growth, NCI panel, 48 h).

SMILES | TGI
Cn1c(N)c2c3c(sc2nc1=O)CCCC3 | > 75 µM
NC12Oc3cc(O)cc(O)c3C1(c1ccc(Cl)cc1)c1c(O)cc(O)cc1O2 (centres undefined) | > 100 µM
Cn1c(=O)c2c(no[n+]2[O-])c2ccccc21 | 44.4 µM

What follows are compounds tested on HOP-92 NSCLC (assay: inhibition of tumour cell growth, NCI panel, 48 h).

SMILES | TGI
NC12Oc3cc(O)cc(O)c3C1(c1ccc(Cl)cc1)c1c(O)cc(O)cc1O2 (centres undefined) | > 100 µM
CCN(CC)C(=S)SS(=O)(=O)c1ccc(F)cc1 | > 100 µM
Cn1c(=O)c2c(no[n+]2[O-])c2ccccc21 | 52.2 µM

What follows are compounds tested on HCT-116 colon (assay: inhibition of tumour cell growth, NCI panel, 48 h).

SMILES | TGI
Cn1c(N)c2c3c(sc2nc1=O)CCCC3 | > 75 µM
NC12Oc3cc(O)cc(O)c3C1(c1ccc(Cl)cc1)c1c(O)cc(O)cc1O2 (centres undefined) | > 100 µM
CCN(CC)C(=S)SS(=O)(=O)c1ccc(F)cc1 | > 100 µM
Cn1c(=O)c2c(no[n+]2[O-])c2ccccc21 | 30.2 µM

What follows are compounds tested on OVCAR-4 ovarian (assay: inhibition of tumour cell growth, NCI panel, 48 h).

SMILES | TGI
Cn1c(N)c2c3c(sc2nc1=O)CCCC3 | > 75 µM
NC12Oc3cc(O)cc(O)c3C1(c1ccc(Cl)cc1)c1c(O)cc(O)cc1O2 (centres undefined) | > 100 µM
CCN(CC)C(=S)SS(=O)(=O)c1ccc(F)cc1 | > 100 µM
Cn1c(=O)c2c(no[n+]2[O-])c2ccccc21 | 45.5 µM

These compounds were tested on BT-549 breast (assay: inhibition of tumour cell growth, NCI panel, 48 h).

SMILES | TGI
Cn1c(N)c2c3c(sc2nc1=O)CCCC3 | > 75 µM
NC12Oc3cc(O)cc(O)c3C1(c1ccc(Cl)cc1)c1c(O)cc(O)cc1O2 (centres undefined) | > 100 µM
CCN(CC)C(=S)SS(=O)(=O)c1ccc(F)cc1 | > 100 µM
Cn1c(=O)c2c(no[n+]2[O-])c2ccccc21 | 34.2 µM

Each compound was assayed on RXF 393 renal (assay: inhibition of tumour cell growth, NCI panel, 48 h).

SMILES | TGI
Cn1c(N)c2c3c(sc2nc1=O)CCCC3 | > 75 µM
NC12Oc3cc(O)cc(O)c3C1(c1ccc(Cl)cc1)c1c(O)cc(O)cc1O2 (centres undefined) | > 100 µM
CCN(CC)C(=S)SS(=O)(=O)c1ccc(F)cc1 | 40.4 µM
Cn1c(=O)c2c(no[n+]2[O-])c2ccccc21 | 62 µM

What follows are compounds tested on SF-295 CNS (assay: inhibition of tumour cell growth, NCI panel, 48 h).

SMILES | TGI
Cn1c(N)c2c3c(sc2nc1=O)CCCC3 | > 75 µM
NC12Oc3cc(O)cc(O)c3C1(c1ccc(Cl)cc1)c1c(O)cc(O)cc1O2 (centres undefined) | > 100 µM
CCN(CC)C(=S)SS(=O)(=O)c1ccc(F)cc1 | > 100 µM
Cn1c(=O)c2c(no[n+]2[O-])c2ccccc21 | 61.1 µM

What follows are compounds tested on MCF7 breast (assay: inhibition of tumour cell growth, NCI panel, 48 h).

SMILES | TGI
Cn1c(N)c2c3c(sc2nc1=O)CCCC3 | > 75 µM
NC12Oc3cc(O)cc(O)c3C1(c1ccc(Cl)cc1)c1c(O)cc(O)cc1O2 (centres undefined) | > 100 µM
Cn1c(=O)c2c(no[n+]2[O-])c2ccccc21 | > 100 µM

These compounds were tested on MALME-3M melanoma (assay: inhibition of tumour cell growth, NCI panel, 48 h).

SMILES | TGI
Cn1c(N)c2c3c(sc2nc1=O)CCCC3 | > 75 µM
NC12Oc3cc(O)cc(O)c3C1(c1ccc(Cl)cc1)c1c(O)cc(O)cc1O2 (centres undefined) | > 100 µM
CCN(CC)C(=S)SS(=O)(=O)c1ccc(F)cc1 | 68.4 µM
Cn1c(=O)c2c(no[n+]2[O-])c2ccccc21 | 29 µM

These compounds were tested on SW-620 colon (assay: inhibition of tumour cell growth, NCI panel, 48 h).

SMILES | TGI
Cn1c(N)c2c3c(sc2nc1=O)CCCC3 | > 75 µM
NC12Oc3cc(O)cc(O)c3C1(c1ccc(Cl)cc1)c1c(O)cc(O)cc1O2 (centres undefined) | > 100 µM
CCN(CC)C(=S)SS(=O)(=O)c1ccc(F)cc1 | 53.7 µM
Cn1c(=O)c2c(no[n+]2[O-])c2ccccc21 | 41.2 µM

The compounds below were run on 786-0 renal (assay: inhibition of tumour cell growth, NCI panel, 48 h).

SMILES | TGI
Cn1c(N)c2c3c(sc2nc1=O)CCCC3 | > 75 µM
NC12Oc3cc(O)cc(O)c3C1(c1ccc(Cl)cc1)c1c(O)cc(O)cc1O2 (centres undefined) | > 100 µM
CCN(CC)C(=S)SS(=O)(=O)c1ccc(F)cc1 | > 100 µM
Cn1c(=O)c2c(no[n+]2[O-])c2ccccc21 | 39.1 µM

What follows are compounds tested on NCI-H460 lung (assay: inhibition of tumour cell growth, NCI panel, 48 h).

SMILES | TGI
Cn1c(N)c2c3c(sc2nc1=O)CCCC3 | > 75 µM
NC12Oc3cc(O)cc(O)c3C1(c1ccc(Cl)cc1)c1c(O)cc(O)cc1O2 (centres undefined) | > 100 µM
CCN(CC)C(=S)SS(=O)(=O)c1ccc(F)cc1 | > 100 µM
Cn1c(=O)c2c(no[n+]2[O-])c2ccccc21 | 35.3 µM

The compounds below were run on SK-MEL-28 melanoma (assay: inhibition of tumour cell growth, NCI panel, 48 h).

SMILES | TGI
Cn1c(N)c2c3c(sc2nc1=O)CCCC3 | > 75 µM
NC12Oc3cc(O)cc(O)c3C1(c1ccc(Cl)cc1)c1c(O)cc(O)cc1O2 (centres undefined) | > 100 µM
CCN(CC)C(=S)SS(=O)(=O)c1ccc(F)cc1 | 30.5 µM

What follows are compounds tested on HOP-62 NSCLC (assay: inhibition of tumour cell growth, NCI panel, 48 h).

SMILES | TGI
Cn1c(N)c2c3c(sc2nc1=O)CCCC3 | > 75 µM
NC12Oc3cc(O)cc(O)c3C1(c1ccc(Cl)cc1)c1c(O)cc(O)cc1O2 (centres undefined) | > 100 µM
CCN(CC)C(=S)SS(=O)(=O)c1ccc(F)cc1 | > 100 µM
Cn1c(=O)c2c(no[n+]2[O-])c2ccccc21 | 35.9 µM

The compounds below were run on UACC-257 melanoma (assay: inhibition of tumour cell growth, NCI panel, 48 h).

SMILES | TGI
Cn1c(N)c2c3c(sc2nc1=O)CCCC3 | > 75 µM
NC12Oc3cc(O)cc(O)c3C1(c1ccc(Cl)cc1)c1c(O)cc(O)cc1O2 (centres undefined) | > 100 µM
CCN(CC)C(=S)SS(=O)(=O)c1ccc(F)cc1 | 87.3 µM
Cn1c(=O)c2c(no[n+]2[O-])c2ccccc21 | 33.2 µM

Each compound was assayed on SK-OV-3 ovarian (assay: inhibition of tumour cell growth, NCI panel, 48 h).

SMILES | TGI
NC12Oc3cc(O)cc(O)c3C1(c1ccc(Cl)cc1)c1c(O)cc(O)cc1O2 (centres undefined) | > 100 µM
CCN(CC)C(=S)SS(=O)(=O)c1ccc(F)cc1 | > 100 µM
Cn1c(=O)c2c(no[n+]2[O-])c2ccccc21 | 77 µM

What follows are compounds tested on MDA-MB-231 breast (assay: inhibition of tumour cell growth, NCI panel, 48 h).

SMILES | TGI
Cn1c(N)c2c3c(sc2nc1=O)CCCC3 | > 75 µM
CCN(CC)C(=S)SS(=O)(=O)c1ccc(F)cc1 | > 100 µM
Cn1c(=O)c2c(no[n+]2[O-])c2ccccc21 | 48 µM

The compounds below were run on SN12C renal (assay: inhibition of tumour cell growth, NCI panel, 48 h).

SMILES | TGI
Cn1c(N)c2c3c(sc2nc1=O)CCCC3 | > 75 µM
NC12Oc3cc(O)cc(O)c3C1(c1ccc(Cl)cc1)c1c(O)cc(O)cc1O2 (centres undefined) | > 100 µM
CCN(CC)C(=S)SS(=O)(=O)c1ccc(F)cc1 | > 100 µM
Cn1c(=O)c2c(no[n+]2[O-])c2ccccc21 | 59.8 µM

Each compound was assayed on ACHN renal (assay: inhibition of tumour cell growth, NCI panel, 48 h).

SMILES | TGI
Cn1c(N)c2c3c(sc2nc1=O)CCCC3 | > 75 µM
NC12Oc3cc(O)cc(O)c3C1(c1ccc(Cl)cc1)c1c(O)cc(O)cc1O2 (centres undefined) | > 100 µM
CCN(CC)C(=S)SS(=O)(=O)c1ccc(F)cc1 | > 100 µM
Cn1c(=O)c2c(no[n+]2[O-])c2ccccc21 | 83 µM

What follows are compounds tested on OVCAR-5 ovarian (assay: inhibition of tumour cell growth, NCI panel, 48 h).

SMILES | TGI
Cn1c(N)c2c3c(sc2nc1=O)CCCC3 | > 75 µM
NC12Oc3cc(O)cc(O)c3C1(c1ccc(Cl)cc1)c1c(O)cc(O)cc1O2 (centres undefined) | > 100 µM
CCN(CC)C(=S)SS(=O)(=O)c1ccc(F)cc1 | > 100 µM

The compounds below were run on M14 melanoma (assay: inhibition of tumour cell growth, NCI panel, 48 h).

SMILES | TGI
NC12Oc3cc(O)cc(O)c3C1(c1ccc(Cl)cc1)c1c(O)cc(O)cc1O2 (centres undefined) | > 100 µM
CCN(CC)C(=S)SS(=O)(=O)c1ccc(F)cc1 | 60.5 µM
Cn1c(=O)c2c(no[n+]2[O-])c2ccccc21 | 25.3 µM
